From patent US20240425484A1, “INHIBITORS OF TYK2” (Atomwise Inc., priority 2023, published 2024)

What was measured:
[1] = Mouse pharmacokinetic study, oral administration; type: in vivo; conditions: male, mouse plasma, PO at 5 mg/kg; for half-life: read-out: Half-life t1/2; for Cmax: read-out: Maximum plasma concentration Cmax; for AUC(0-inf): read-out: Total systemic exposure AUCinf
Method: The following example describes the methods used to evaluate the pharmacokinetics of TYK2 inhibitors in vivo following dosing of a compound of the invention.
The pharmacokinetics of test compounds were evaluated in either male CD-1 mice or male C57BL/6 mice when administered by oral gavage and IV bolus injection. The animals were allowed free access to food and water before administration. The plasma samples were analyzed by LC-MS/MS and the concentration of test compound at each time point was determined by linear regression. Pharmacokinetic parameters were calculated from the plasma concentrations by non-compartmental modeling using WinNonlin 8.2.
Oral composition. To prepare a pharmaceutical composition for oral delivery, the test articles described herein were dissolved in DMSO and then mixed with necessary volume of PEG400 followed by 0.9% sterile saline or 5% dextrose in water or 5% Kolliphor HS 15 in saline to provide the final concentrations of 0.5 mg/mL or 1 mg/mL (Table 8). The resultant mixtures were suitable for oral administration.
The PK parameters measured in mouse plasma after treatment with TYK2 inhibitor compounds via PO (oral administration) at 5 mg/kg are summarized below in Tables 9-11.

TYK2-JH2 = molecular target: T1, TYK2-JH2 (Homo sapiens, UniProt P29597); test: TYK2-JH2 HTRF binding assay (ligand efficiency); conditions: calculated (Equation 1) from IC50 of the TYK-JH2 binding assay
T1 construct: TYK JH2 enzyme mix (ChemPartner: CP20210818A-BV); purchased ChemPartner CP20210818A-BV
T1 sequence (P29597 589-875 limits assumed): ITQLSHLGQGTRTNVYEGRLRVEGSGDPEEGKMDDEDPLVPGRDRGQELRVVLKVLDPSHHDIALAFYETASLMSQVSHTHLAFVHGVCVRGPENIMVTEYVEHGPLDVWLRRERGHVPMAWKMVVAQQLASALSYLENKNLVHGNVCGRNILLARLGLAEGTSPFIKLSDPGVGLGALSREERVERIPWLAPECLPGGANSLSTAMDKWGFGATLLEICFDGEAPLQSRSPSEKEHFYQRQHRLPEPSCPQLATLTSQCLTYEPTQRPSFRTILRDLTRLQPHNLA
Method: The following example describes the TYK2-JH2 HTRF binding assay used to determine the ligand efficiency of the TYK2 inhibitors.
To calculate ligand efficiency, Equation 1 is applied: […]
in which IC50 comes from the binding assay used to determine compound potency.
TYK JH2 enzyme mix (ChemPartner: CP20210818A-BV), tracer (ChemPartner: CP-0029472-051) and mAb Anti-6HIS Tb cryptate Gold (Cisbio: Cat No. 61HI2TLA) mix were prepared in assay buffer (10 mM MgCl2, 20 mM HEPES pH 7.5, 0.01% Triton X-100, 1 mM DTT). Compounds diluted in DMSO (Final Concentrations 0.1 to 0.000005 [μM]) and enzyme mix (0.5 nM Final Concentration) were added to 384 well plates, briefly centrifuged and incubated at room temperature for 10 minutes. After incubation, tracer mix (Tracer-35 nM final concentration); (MAb Anti-6HIS Tb cryptate Gold-0.5X final)) was added, briefly centrifuged then incubate at room temperature 60 minutes. After incubation, plates were read by Envision TR-FRET (Ex340/Em495/520) protocol (PerkinElmer-Envision 2104 multilabel plate reader).

## CS(=O)(=O)c1cccnc1Nc1cc(Nc2ccc3c(n2)CCCC3N2CC3(COC3)C2)ncn1 (stereo in doubt) [Compound 5, (R)—N^4-(5-(2-oxa-6-azaspiro[3.3]heptan-6-yl)-5,6,7,8-tetrahydroquinolin-2-yl)-N^6-(3-(methylsulfonyl)pyridin-2-yl)pyrimidine-4,6-diamine]
[1]
  half-life: > 1.5 h
  Cmax: > 1500 ng/mL
  AUC(0-inf): > 2000 ng·h/mL

## CC(c1ccc(Nc2cc(Nc3ncccc3S(C)(=O)=O)ncn2)nc1C(F)(F)F)N1CC2(COC2)C1 (stereo in doubt) [Compound 11, (R)—N^4-(5-(1-(2-oxa-6-azaspiro[3.3]heptan-6-yl)ethyl)-6-(trifluoromethyl)pyridin-2-yl)-N^6-(3-(methylsulfonyl)pyridin-2-yl)pyrimidine-4,6-diamine]
[1]
  half-life: > 1.5 h
  Cmax: 800 to 1500 ng/mL
  AUC(0-inf): > 2000 ng·h/mL

## Cc1nc(Nc2cc(Nc3ncccc3S(C)(=O)=O)ncn2)ccc1[C@H](C)N1CC2(COC2)C1 (stereo in doubt) [Compound 12, N^4-(5-(1-(2-oxa-6-azaspiro[3.3]heptan-6-yl)ethyl)-6-methylpyridin-2-yl)-N^6-(3-(methylsulfonyl)pyridin-2-yl)pyrimidine-4,6-diamine]
[1]
  half-life: < 1 h
  Cmax: > 1500 ng/mL
  AUC(0-inf): 1000 to 2000 ng·h/mL
TYK2-JH2
  Ligand Efficiency: ††† (†††: >0.39)

## Cc1nc(Nc2cc(Nc3ncccc3S(C)(=O)=O)ncn2)ccc1NC1(C)COC1 [Compound 6, N^4-(6-methyl-5-((3-methyloxetan-3-yl)amino)pyridin-2-yl)-N^6-(3-(methylsulfonyl)pyridin-2-yl)pyrimidine-4,6-diamine]
[1]
  half-life: < 1 h
  Cmax: > 1500 ng/mL
  AUC(0-inf): > 2000 ng·h/mL
TYK2-JH2
  Ligand Efficiency: ††† (†††: >0.39)

## C[C@H]1CN(C2CC2)CCN1c1ccc(Nc2cc(Nc3ncccc3S(C)(=O)=O)ncn2)nc1 [Compound 8, (S)—N^4-(5-(4-cyclopropyl-2-methylpiperazin-1-yl)pyridin-2-yl)-N^6-(3-(methylsulfonyl)pyridin-2-yl)pyrimidine-4,6-diamine]
[1]
  half-life: > 1.5 h
  Cmax: 800 to 1500 ng/mL
  AUC(0-inf): 1000 to 2000 ng·h/mL
TYK2-JH2
  Ligand Efficiency: ††† (†††: >0.39)

## Cc1cccc(Nc2cc(Nc3ccccc3S(C)(=O)=O)nc(N)n2)n1 [Compound 57, N^4-(6-methylpyridin-2-yl)-N^6-(2-(methylsulfonyl)phenyl)pyrimidine-2,4,6-triamine]
TYK2-JH2
  Ligand Efficiency: ††† (†††: >0.39)

## Cc1ccnc(Nc2cc(Nc3ccccc3C(N)=O)ncn2)n1 [Compound 58, 2-(6-(4-methylpyrimidin-2-ylamino)pyrimidin-4-ylamino)benzamide]
TYK2-JH2
  Ligand Efficiency: ††† (†††: >0.39)

## Cc1cccc(Nc2cc(Nc3cccnc3S(C)(=O)=O)ncn2)n1 [Compound 59, N^4-(6-methylpyridin-2-yl)-N^6-(2-(methylsulfonyl)pyridin-3-yl)pyrimidine-4,6-diamine]
TYK2-JH2
  Ligand Efficiency: ††† (†††: >0.39)

## Cc1cccc(Nc2cc(Nc3ccncc3S(C)(=O)=O)ncn2)n1 [Compound 60, N^4-(6-methylpyridin-2-yl)-N^6-(3-(methylsulfonyl)pyridin-4-yl)pyrimidine-4,6-diamine]
TYK2-JH2
  Ligand Efficiency: ††† (†††: >0.39)

## Cc1cccc(Nc2cc(Nc3cnccc3C(N)=O)ncn2)n1 [Compound 61, 3-((6-((6-methylpyridin-2-yl)amino)pyrimidin-4-yl)amino) isonicotinamide]
TYK2-JH2
  Ligand Efficiency: ††† (†††: >0.39)

## Cc1ccnc(Nc2cc(Nc3ccccc3P(C)(C)=O)ncn2)c1 [Compound 63, N^4-(2-(dimethylphosphoryl)phenyl)-N^6-(4-methylpyridin-2-yl)pyrimidine-4,6-diamine]
TYK2-JH2
  Ligand Efficiency: ††† (†††: >0.39)

## CS(=O)(=O)c1cccnc1Nc1cc(Nc2ncccc2F)ncn1 [Compound 64, N^4-(3-fluoropyridin-2-yl)-N^6-(3-(methylsulfonyl)pyridin-2-yl)pyrimidine-4,6-diamine]
TYK2-JH2
  Ligand Efficiency: ††† (†††: >0.39)

## COc1ccnc(Nc2cc(Nc3cccc(C)n3)ncn2)c1S(C)(=O)=O [Compound 65, N^4-(4-methoxy-3-(methylsulfonyl)pyridin-2-yl)-N^6-(6-methylpyridin-2-yl)pyrimidine-4,6-diamine]
TYK2-JH2
  Ligand Efficiency: ††† (†††: >0.39)

## Cn1ccc(Nc2cc(Nc3ccccc3S(C)(=O)=O)ncn2)n1 [Compound 66, N^4-(1-methyl-1H-pyrazol-3-yl)-N^6-(2-(methylsulfonyl)phenyl)pyrimidine-4,6-diamine]
TYK2-JH2
  Ligand Efficiency: ††† (†††: >0.39)

## Cn1ccc(Nc2cc(Nc3ccccc3C(N)=O)ncn2)n1 [Compound 67, 2-((6-((1-methyl-1H-pyrazol-3-yl)amino)pyrimidin-4-yl)amino)benzamide]
TYK2-JH2
  Ligand Efficiency: ††† (†††: >0.39)

## Cc1cccnc1Nc1cc(Nc2ccccc2C(N)=O)ncn1 [Compound 68, 2-((6-((3-methylpyridin-2-yl)amino)pyrimidin-4-yl)amino)benzamide]
TYK2-JH2
  Ligand Efficiency: ††† (†††: >0.39)

## CS(=O)(=O)c1ccccc1Nc1cc(NC(=O)C2CC2)ncn1 [Compound 69, N^4-(cyclopropylcarbonyl)-N^6-(2-(methylsulfonyl)phenyl)pyrimidine-4,6-diamine]
TYK2-JH2
  Ligand Efficiency: ††† (†††: >0.39)

## COc1ccc(Nc2cc(NC(=O)C3CC3)ncn2)c(C(N)=O)c1 [Compound 70, 2-((6-(cyclopropanecarboxamido)pyrimidin-4-yl)amino)-5-methoxy benzamide]
TYK2-JH2
  Ligand Efficiency: ††† (†††: >0.39)

## Cc1cccc(Nc2cc(Nc3ncccc3CS(C)(=O)=O)ncn2)n1 [Compound 71, N^4-(6-methylpyridin-2-yl)-N^6-(3-((methylsulfonyl)methyl)pyridin-2-yl)pyrimidine-4,6-diamine]
TYK2-JH2
  Ligand Efficiency: ††† (†††: >0.39)

## Cn1cc(-c2ccnc(Nc3cc(Nc4ccc(NC5(C)COC5)cn4)ncn3)c2S(C)(=O)=O)cn1 [Compound 72, N^4-(4-(1-methyl-1H-pyrazol-4-yl)-3-(methylsulfonyl)pyridin-2-yl)-N^6-(5-(3-methyloxetan-3-ylamino)pyridin-2-yl)pyrimidine-4,6-diamine]
TYK2-JH2
  Ligand Efficiency: † (†: <0.37)

## CC1(Nc2ccc(Nc3cc(Nc4ncccc4S(C)(=N)=O)ncn3)nc2)COC1 (stereo not drawn) [Compound 73, N^4-(5-((3-methyloxetan-3-yl)amino)pyridin-2-yl)-N^6-(3-(S-methylsulfonimidoyl)pyridin-2-yl)pyrimidine-4,6-diamine]
TYK2-JH2
  Ligand Efficiency: ††† (†††: >0.39)

## CC1(Nc2cnc(Nc3cc(Nc4ncccc4S(C)(=O)=O)ncn3)cn2)COC1 [Compound 74, N^4-(5-(3-methyloxetan-3-ylamino)pyrazin-2-yl)-N^6-(3-(methylsulfonyl)pyridin-2-yl)pyrimidine-4,6-diamine]
TYK2-JH2
  Ligand Efficiency: ††† (†††: >0.39)

## CC(c1ccc(Nc2ncnc(Nc3ncccc3S(C)(=O)=O)c2F)nc1)N1CC2(COC2)C1 (stereo not drawn) [Compound 75, N^4-(5-(1-(2-oxa-6-azaspiro[3.3]heptan-6-yl)ethyl)pyridin-2-yl)-5-fluoro-N^6-(3-(methylsulfonyl)pyridin-2-yl)pyrimidine-4,6-diamine]
TYK2-JH2
  Ligand Efficiency: † (†: <0.37)

## COc1ccnc(Nc2cc(Nc3ccc(C(C)N4CC5(COC5)C4)cn3)ncn2)c1S(C)(=O)=O (stereo not drawn) [Compound 76, N^4-(5-(1-(2-oxa-6-azaspiro[3.3]heptan-6-yl)ethyl)pyridin-2-yl)-N^6-(4-methoxy-3-(methylsulfonyl)pyridin-2-yl)pyrimidine-4,6-diamine]
TYK2-JH2
  Ligand Efficiency: † (†: <0.37)

## CC(c1ccc(Nc2cc(Nc3ncc(C4COC4)cc3S(C)(=O)=O)ncn2)nc1)N1CC2(COC2)C1 (stereo not drawn) [Compound 78, N^4-(5-(1-(2-oxa-6-azaspiro[3.3]heptan-6-yl)ethyl)pyridin-2-yl)-N^6-(3-(methylsulfonyl)-5-(oxetan-3-yl)pyridin-2-yl)pyrimidine-4,6-diamine]
TYK2-JH2
  Ligand Efficiency: † (†: <0.37)

## CS(=O)(=O)c1ccccc1Nc1cc(Nc2ccc(NC3COC3)cn2)ncn1 [Compound 80, N^4-(2-(methylsulfonyl)phenyl)-N^6-(5-(oxetan-3-ylamino)pyridin-2-yl)pyrimidine-4,6-diamine]
TYK2-JH2
  Ligand Efficiency: † (†: <0.37)
